Experimental data reported in patent US10273233B2, “Inhibitors of influenza viruses replication” (Vertex Pharmaceuticals Incorporated, priority 2015, dated 2019).

Legend:
A/FM/1/47 = assay: 3-day CP assay in MDCK cells; assay type: cell-based; settings: Influenza A virus
B/Memphis/20/1996--070 = assay: 3-day CP assay in MDCK cells; assay type: cell-based; settings: Influenza B virus
A/Weiss/43 = assay: 3-day CP assay in MDCK cells; assay type: cell-based; settings: Influenza A virus
A/New Jersey/8/76 = assay: microbe, parasite or virus in culture; assay type: cell-based; settings: Influenza A virus, MDCK
A/California/07/2009 = assay: 3-day CP assay in MDCK cells; assay type: cell-based; settings: Influenza A virus, H1N1, MDCK, in Sus scrofa
A/Swine/1976/31 = assay: microbe, parasite or virus in culture; assay type: cell-based; settings: Influenza A virus, MDCK, in Sus scrofa
A/Virginia/ATCC3/2009 = assay: 3-day CP assay in MDCK cells; assay type: cell-based; settings: Influenza A virus
A/Missouri/3/2006 = assay: 3-day CP assay in MDCK cells; assay type: cell-based; settings: Influenza A virus
A/Nebraska/1/2006 = assay: 3-day CP assay in MDCK cells; assay type: cell-based; settings: Influenza A virus
A/Equine/Miami/63 = assay: microbe, parasite or virus in culture; assay type: cell-based; settings: Influenza A virus, MDCK
A/St. Petersburg8/2006 = assay: 3-day CP assay in MDCK cells; assay type: cell-based; settings: Influenza A virus
B/Lee/40 = assay: 3-day CP assay in MDCK cells; assay type: cell-based; settings: Influenza B virus
A/Uruguay/716/2007 = assay: 3-day CP assay in MDCK cells; assay type: cell-based; settings: Influenza A virus
A/Virginia/01/2006 = assay: 3-day CP assay in MDCK cells; assay type: cell-based; settings: Influenza A virus
influenza A = assay: Influenza A mouse model, Compound (1) with or without oseltamivir; assay type: in vivo, Mice; settings: for Percent Survival: 10 days
Protocol: Referring to FIG. 32, the potential for a positive therapeutic interaction between Compound (1) and oseltamivir against influenza A was explored in the mouse model. Mice were challenged with influenza A and dosed with vehicle (10 mL/kg 0.5% MC) or Compound (1) at 1, 3, 10, or 30 mg/kg BID alone, or in combination with 10 mg/kg BID oseltamivir. Therapy was started 48 hours post influenza A infection and continued for 10 days. All of the vehicle-treated controls succumbed to disease by study day 8 (Table 21).

A/Virginia/ATCC2/2009 = assay: 3-day CP assay in MDCK cells; assay type: cell-based; settings: Influenza A virus
A/WS/33 = assay: 3-day CP assay in MDCK cells; assay type: cell-based; settings: Influenza A virus
A/Chelyabinsk/1/200 = assay: 3-day CP assay in MDCK cells; assay type: cell-based; settings: Influenza A virus
A/Henan/Jinshui/147/2007 = assay: 3-day CP assay in MDCK cells; assay type: cell-based; settings: Influenza A virus
A/Wisconsin/67/2005 = assay: 3-day CP assay in MDCK cells; assay type: cell-based; settings: Influenza A virus
A/Aichi/2/68 = assay: 3-day CP assay in MDCK cells; assay type: cell-based; settings: Influenza A virus
A/Texas/48/2009 = assay: 3-day CP assay in MDCK cells; assay type: cell-based; settings: Influenza A virus
A/Mexico/4108/2009 = assay: 3-day CP assay in MDCK cells; assay type: cell-based; settings: Influenza A virus
A/Victoria/3/75 = assay: 3-day CP assay in MDCK cells; assay type: cell-based; settings: Influenza A virus
A/Santiago/7981/2006 = assay: 3-day CP assay in MDCK cells; assay type: cell-based; settings: Influenza A virus
A/Port Chalmers/1/73 = assay: 3-day CP assay in MDCK cells; assay type: cell-based; settings: Influenza A virus
A/Georgia/20/2006 = assay: 3-day CP assay in MDCK cells; assay type: cell-based, influenza A
B/Memphis/20/1996--071 = assay: 3-day CP assay in MDCK cells; assay type: cell-based; settings: Influenza B virus
A/Puerto Rico/8/34 = assay: 3-day CP assay in MDCK cells; assay type: cell-based; settings: Influenza A virus
A/Swine/Iowa/15/30 = assay: microbe, parasite or virus in culture; assay type: cell-based, influenza A; settings: read-out: EC50
A/Denver/1/57 = assay: 3-day CP assay in MDCK cells; assay type: cell-based; settings: Influenza A virus
B/Russia/69 = assay: 3-day CP assay in MDCK cells; assay type: cell-based; settings: Influenza B virus
A/VN/1203/2004 (H5N1) = assay: microbe, parasite or virus in culture; assay type: cell-based; settings: Influenza A virus, H5N1, MDCK
A/South Dakota/6/2007 = assay: 3-day CP assay in MDCK cells; assay type: cell-based; settings: Influenza A virus
A/Cambodia0371/2007 = assay: 3-day CP assay in MDCK cells; assay type: cell-based; settings: Influenza A virus
A/NWS/33 = assay: 3-day CP assay in MDCK cells; assay type: cell-based, influenza A
A/Georgia/17/2006 = assay: 3-day CP assay in MDCK cells; assay type: cell-based; settings: Influenza A virus
A/Hong Kong/8/68 = assay: 3-day CP assay in MDCK cells; assay type: cell-based; settings: Influenza A virus
A/Texas/12/2007 = assay: 3-day CP assay in MDCK cells; assay type: cell-based; settings: Influenza A virus
A/Fukushima/141/2006 = assay: 3-day CP assay in MDCK cells; assay type: cell-based; settings: Influenza A virus
A/Mal/302/54 = assay: 3-day CP assay in MDCK cells; assay type: cell-based; settings: Influenza A virus
[1] = test system: A/California/07/2009 NYMC, X-179A; assay: 3-day CP assay in MDCK cells; assay type: cell-based; settings: Influenza A virus

SMILES: CC(C)(C)[C@@H](CC(=O)O)Nc1nc(-c2c[nH]c3ncc(F)cc23)ncc1F [Compound (1)]
- EC50 (A/FM/1/47): 1.5 nM
- EC50 (B/Memphis/20/1996--070): > 10000 nM
- EC50 (A/Weiss/43): 1.3 nM
- EC50 (A/New Jersey/8/76): 0.96 nM
- EC50 (A/California/07/2009): 4 nM
- EC50 (A/Swine/1976/31): 5.2 nM
- EC50 (A/Virginia/ATCC3/2009): 1.2 nM
- EC50 (A/Missouri/3/2006): 2.6 nM
- EC50 (A/Nebraska/1/2006): 1.9 nM
- EC50 (A/Equine/Miami/63): 3.7 nM
- EC50 (A/St. Petersburg8/2006): 1.3 nM
- EC50 (B/Lee/40): > 10000 nM
- EC50 (A/Uruguay/716/2007): 1 nM
- EC50 (A/Virginia/01/2006): 12 nM
- protection from mortality (influenza A; 1 or 3 mg/kg BID Compound (1) with 10 mg/kg oseltamivir dosed BID): increased protection from mortality compared to the single agents
- Percent Survival (influenza A; Compound (1) 1 mg/kg BID alone, started +48 hours after infection): 0%
- Percent Survival (influenza A; Compound (1) 1 mg/kg BID in combination with oseltamivir 10 mg/kg BID, +48 hours): 87.5%
- Percent Survival (influenza A; Compound (1) 3 mg/kg BID alone, started +48 hours after infection): 75%
- Percent Survival (influenza A; Compound (1) 3 mg/kg BID in combination with oseltamivir 10 mg/kg BID, +48 hours): 100%
- Percent Survival (influenza A; Compound (1) 10 mg/kg BID alone, started +48 hours after infection): 100%
- Percent Survival (influenza A; Compound (1) 10 mg/kg BID in combination with oseltamivir 10 mg/kg BID, +48 hours): 100%
- Percent Survival (influenza A; Compound (1) 30 mg/kg BID alone, started +48 hours after infection): 100%
- Percent Survival (influenza A; Compound (1) 30 mg/kg BID in combination with oseltamivir 10 mg/kg BID, +48 hours): 100%
- protection from mortality (influenza A; Compound (1) at 3 mg/kg BID alone): partial survival benefit
- protection from mortality (influenza A; Compound (1) at 10 or 30 mg/kg BID alone): complete protection from mortality
- protection from mortality (influenza A; administered alone: Compound (1) 1 mg/kg BID, oseltamivir 10 mg/kg): failed to protect mice from influenza infection
- interaction of Compound (1) and oseltamivir combination (influenza A; combination with oseltamivir): synergistic effect
- EC50 (A/Virginia/ATCC2/2009): 1.4 nM
- EC50 (A/WS/33): 2.4 nM
- EC50 (A/Chelyabinsk/1/200): 3.1 nM
- EC50 (A/Henan/Jinshui/147/2007): 19 nM
- EC50 (A/Wisconsin/67/2005): 3.7 nM
- EC50 (A/Aichi/2/68): 4.4 nM
- EC50 (A/Texas/48/2009): 1.2 nM
- EC50 (A/Mexico/4108/2009): 3.7 nM
- EC50 (A/Victoria/3/75): 2.1 nM
- EC50 (A/Santiago/7981/2006): 1.8 nM
- EC50 (A/Port Chalmers/1/73): 2.3 nM
- EC50 (A/Georgia/20/2006): 1.7 nM
- EC50 (B/Memphis/20/1996--071): > 10000 nM
- EC50 (A/Puerto Rico/8/34): 14 nM
- EC50 (A/Swine/Iowa/15/30): 4.3 nM
- EC50 (A/Denver/1/57): 1.4 nM
- EC50 (B/Russia/69): > 10000 nM
- EC50 (A/VN/1203/2004 (H5N1)): 4.2 nM
- EC50 (A/South Dakota/6/2007): 0.52 nM
- EC50 (A/Cambodia0371/2007): 1.2 nM
- EC50 (A/NWS/33): 1.7 nM
- EC50 (A/Georgia/17/2006): 9.1 nM
- EC50 (A/Hong Kong/8/68): 1.9 nM
- EC50 (A/Texas/12/2007): 30 nM
- EC50 (A/Fukushima/141/2006): 1.5 nM
- EC50 (A/Mal/302/54): 3.9 nM
- EC50 [1]: 10 nM
